From publication PMC10661964 (Current Drug Metabolism, 2023) come the findings set out here.

Assay in all cases: Uptake transporter inhibition
What all share (type): in vitro ADME

Assay [1] has as its target T1, OAT3 (Homo sapiens, UniProt Q8TCC7).
T1 sequence (Q8TCC7 1-542): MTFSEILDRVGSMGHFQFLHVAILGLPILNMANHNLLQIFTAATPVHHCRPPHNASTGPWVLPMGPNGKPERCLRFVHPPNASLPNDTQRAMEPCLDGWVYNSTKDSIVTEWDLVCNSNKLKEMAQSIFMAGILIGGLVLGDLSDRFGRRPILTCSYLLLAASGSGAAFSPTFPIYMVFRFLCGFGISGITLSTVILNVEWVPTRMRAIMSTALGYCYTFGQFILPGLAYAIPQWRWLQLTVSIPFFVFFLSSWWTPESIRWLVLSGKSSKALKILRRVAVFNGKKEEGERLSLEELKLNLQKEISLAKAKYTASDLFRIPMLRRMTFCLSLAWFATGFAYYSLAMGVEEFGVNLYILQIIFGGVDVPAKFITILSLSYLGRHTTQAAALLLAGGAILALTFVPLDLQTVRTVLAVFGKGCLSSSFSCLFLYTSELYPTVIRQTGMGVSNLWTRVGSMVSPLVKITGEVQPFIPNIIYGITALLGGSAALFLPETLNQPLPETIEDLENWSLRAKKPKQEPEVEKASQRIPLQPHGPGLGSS
Conditions: probe substrate estrone-3-sulphate. The text has this: (§1) The inhibition of cytochrome P450 (CYP) isoforms and a range of cellular transporters (except multidrug and toxin extrusion [MATE] proteins), as well as the induction of CYP isoforms were investigated using previously described methods.

The target of assay [2] is T2, OCT2 (Homo sapiens, UniProt O15244).
T2 sequence (O15244 1-555): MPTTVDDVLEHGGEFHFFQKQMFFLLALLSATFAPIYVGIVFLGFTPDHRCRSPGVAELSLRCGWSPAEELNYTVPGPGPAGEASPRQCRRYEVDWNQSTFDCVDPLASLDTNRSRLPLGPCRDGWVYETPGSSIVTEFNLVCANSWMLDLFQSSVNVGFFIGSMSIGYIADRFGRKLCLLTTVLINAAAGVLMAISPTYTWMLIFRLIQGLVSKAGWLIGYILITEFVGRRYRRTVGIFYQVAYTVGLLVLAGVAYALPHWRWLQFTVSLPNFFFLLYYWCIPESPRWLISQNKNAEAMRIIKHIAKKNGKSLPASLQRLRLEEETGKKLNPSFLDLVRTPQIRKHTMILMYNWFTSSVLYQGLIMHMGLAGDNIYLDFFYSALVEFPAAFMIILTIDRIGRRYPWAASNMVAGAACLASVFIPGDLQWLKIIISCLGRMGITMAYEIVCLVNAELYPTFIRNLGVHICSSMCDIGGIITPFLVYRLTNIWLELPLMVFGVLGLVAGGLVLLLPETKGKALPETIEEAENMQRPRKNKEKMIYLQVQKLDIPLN
Conditions: probe substrate 1-methyl-4-phenylpyridinium.
Description: as §1

In assay [3] the target is T3, OATP1B3 (Homo sapiens, UniProt Q9NPD5).
T3 sequence (Q9NPD5 1-702): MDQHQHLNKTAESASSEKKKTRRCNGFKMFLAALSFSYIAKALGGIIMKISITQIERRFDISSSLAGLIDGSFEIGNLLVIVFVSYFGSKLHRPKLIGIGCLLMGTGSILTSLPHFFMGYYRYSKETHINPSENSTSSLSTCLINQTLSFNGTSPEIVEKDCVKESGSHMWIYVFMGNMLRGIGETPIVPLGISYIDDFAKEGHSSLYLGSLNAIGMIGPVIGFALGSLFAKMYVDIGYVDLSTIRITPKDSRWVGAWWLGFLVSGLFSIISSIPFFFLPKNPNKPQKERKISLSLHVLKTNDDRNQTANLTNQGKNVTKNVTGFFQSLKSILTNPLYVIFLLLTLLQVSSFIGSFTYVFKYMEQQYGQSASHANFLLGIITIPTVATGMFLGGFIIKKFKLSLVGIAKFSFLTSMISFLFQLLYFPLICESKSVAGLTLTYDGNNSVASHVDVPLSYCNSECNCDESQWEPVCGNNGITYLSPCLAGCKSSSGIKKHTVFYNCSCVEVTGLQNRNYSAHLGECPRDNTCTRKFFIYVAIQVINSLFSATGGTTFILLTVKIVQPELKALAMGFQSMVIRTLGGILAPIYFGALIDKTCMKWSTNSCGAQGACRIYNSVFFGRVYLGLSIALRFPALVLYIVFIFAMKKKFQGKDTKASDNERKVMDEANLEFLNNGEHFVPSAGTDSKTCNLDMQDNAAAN
To be noted: probe substrate pravastatin.
Description: as §1

Assay [4] has as its target T4, OATP1B1 (Homo sapiens, UniProt Q9Y6L6).
T4 sequence (Q9Y6L6 1-691): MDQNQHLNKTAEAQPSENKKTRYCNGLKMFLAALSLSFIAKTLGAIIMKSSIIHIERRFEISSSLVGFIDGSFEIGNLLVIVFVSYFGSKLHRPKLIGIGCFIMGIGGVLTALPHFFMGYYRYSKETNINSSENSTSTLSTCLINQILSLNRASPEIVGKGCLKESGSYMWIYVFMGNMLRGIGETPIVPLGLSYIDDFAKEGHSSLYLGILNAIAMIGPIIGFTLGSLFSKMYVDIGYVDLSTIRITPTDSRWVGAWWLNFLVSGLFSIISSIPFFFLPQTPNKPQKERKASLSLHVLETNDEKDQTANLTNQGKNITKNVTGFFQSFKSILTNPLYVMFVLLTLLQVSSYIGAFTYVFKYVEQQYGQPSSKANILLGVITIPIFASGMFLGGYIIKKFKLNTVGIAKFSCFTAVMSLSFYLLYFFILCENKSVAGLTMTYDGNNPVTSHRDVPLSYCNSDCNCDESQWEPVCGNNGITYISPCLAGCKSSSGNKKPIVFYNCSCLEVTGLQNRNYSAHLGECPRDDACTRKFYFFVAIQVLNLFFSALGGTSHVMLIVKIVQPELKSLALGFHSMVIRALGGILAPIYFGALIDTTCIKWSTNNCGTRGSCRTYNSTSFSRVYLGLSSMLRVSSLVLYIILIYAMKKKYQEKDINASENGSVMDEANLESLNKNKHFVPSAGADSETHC
Conditions: probe substrate pravastatin.
Description: as §1

One may read the IC50 as the concentration at which inhibition is half-maximal. Higher therefore signals weaker potency in that assay. Turning to `CC1CS(=O)(=O)CCN1n1cc(SCC(N)C(=O)O)ccc1=O` (stereo not drawn) [M-4], the IC50 in assay [1] was above 5 µM; in assay [2], above 5 µM; in assay [3] it was 10 µM; in assay [4], above 20 µM.

As for `CC1CS(=O)(=O)CCN1N` (stereo not drawn) [M-6], the IC50 in assay [1] is above 30 µM; in assay [2], above 30 µM; in assay [3], above 50 µM; in assay [4], above 50 µM.

Turning to `CC1CS(=O)(=O)CCN1/N=C/c1ccc([N+](=O)[O-])o1` (stereo not drawn) [Nifurtimox, (E)-N-(3-methyl-1,1-dioxo-1,4-thiazinan-4-yl)-1-(5-nitrofuran-2-yl) methanimine, reference compound], the 50% inhibitory concentration (IC50) is above 20 µM in assay [1], above 20 µM in assay [2], above 50 µM in assay [3] and above 50 µM in assay [4].
